# Results reported in patent publication US9681664B2, “Macrocyclic picolinamides as fungicides” (Dow Agrosciences LLC, priority 2012, dated 2017).
# Like-named read-outs stand apart in the source and are kept apart here.
# Assays:
# [1] = test system: Mycosphaerella graminicola; Anamorph: Septoria tritici; assay: Leaf blotch of wheat (SEPTTR) disease control on wheat seedlings; format: in vivo; details: Zymoseptoria tritici, High volume application, 100 ppm
# Procedure: Technical grades of materials were dissolved in acetone, which were then mixed with nine volumes of water containing 110 ppm Triton X-100. The fungicide solutions were applied onto wheat seedlings using an automated booth sprayer to run-off. All sprayed plants were allowed to air dry prior to further handling. All fungicides were evaluated using the aforementioned method for their activity vs. all target diseases. Wheat leaf blotch and brown rust activity were also evaluated using track spray applications, in which case the fungicides were formulated as EC formulations, containing 0.1% Trycol 5941 in the spray solutions. Wheat plants (variety Yuma) were grown from seed in a greenhouse in 50% mineral soil/50% soil-less Metro mix until the first leaf was fully emerged, with 7-10 seedlings per pot. These plants were inoculated with an aqueous spore suspension of Septoria tritici either prior to or after fungicide treatments. After inoculation the plants were kept in 100% relative humidity (one day in a dark dew chamber followed by two to three days in a lighted dew chamber at 20° C.) to permit spores to germinate and infect the leaf. The plants were then transferred to a greenhouse set at 20° C. for disease to develop. When disease symptoms were fully expressed on the 1st leaves of untreated plants, infection levels were assessed on a scale of 0 to 100 percent disease severity. Percent disease control was calculated using the ratio of disease severity on treated plants relative to untreated plants.
# [2] = test system: Puccinia triticina; Synonym: Puccinia recondite f. sp. tritici; assay: Wheat brown rust (PUCCRT) disease control on wheat seedlings; format: in vivo; details: Puccinia triticina, High volume application, 100 ppm
# Procedure: Technical grades of materials were dissolved in acetone, which were then mixed with nine volumes of water containing 110 ppm Triton X-100. The fungicide solutions were applied onto wheat seedlings using an automated booth sprayer to run-off. All sprayed plants were allowed to air dry prior to further handling. All fungicides were evaluated using the aforementioned method for their activity vs. all target diseases. Wheat leaf blotch and brown rust activity were also evaluated using track spray applications, in which case the fungicides were formulated as EC formulations, containing 0.1% Trycol 5941 in the spray solutions. Wheat plants (variety Yuma) were grown from seed in a greenhouse in 50% mineral soil/50% soil-less Metro mix until the first leaf was fully emerged, with 7-10 seedlings per pot. These plants were inoculated with an aqueous spore suspension of Puccinia triticina either prior to or after fungicide treatments. After inoculation the plants were kept in a dark dew room at 22° C. with 100% relative humidity overnight to permit spores to germinate and infect the leaf. The plants were then transferred to a greenhouse set at 24° C. for disease to develop. Fungicide formulation, application and disease assessment followed the procedures as described in the Example A.
# [3] = 24 h, 1 Day Protectant, read-out: SEPTTR 1DP disease control
# [4] = 72 h, 3 Day Curative, read-out: SEPTTR 3DC disease control
# [5] = 24 h, 1 Day Protectant, read-out: PUCCRT 1DP disease control
# [6] = 72 h, 3 Day Curative, read-out: PUCCRT 3DC disease control
Structure (SMILES),"pest or weed control at 100 ppm [1, 3] [%]","pest or weed control at 100 ppm [1, 4] [%]","pest or weed control at 100 ppm [2, 5] [%]","pest or weed control at 100 ppm [2, 6] [%]"
COc1ccnc(C(=O)N[C@H]2CCC[C@H](Oc3ccccc3)[C@@H](OC/C=C/C(F)(F)F)[C@H](C)OC2=O)c1OCOC(C)=O [F106],80 to 100,80 to 100,80 to 100,80 to 100
COc1ccnc(C(=O)N[C@H]2CCC[C@H](Oc3ccccc3)[C@@H](OCCCC(F)(F)F)[C@H](C)OC2=O)c1OCOC(C)=O [F107],80 to 100,80 to 100,80 to 100,80 to 100
COc1ccnc(C(=O)N[C@H]2CCC[C@H](Oc3ccccc3)[C@@H](OCCCC(F)(F)F)[C@H](C)OC2=O)c1OCOC(=O)C(C)C [F108],80 to 100,80 to 100,80 to 100,80 to 100
COc1ccnc(C(=O)N[C@H]2CCC[C@H](Oc3ccccc3)[C@@H](OCCCC(F)(F)F)[C@H](C)OC2=O)c1OC(C)=O [F109],80 to 100,80 to 100,80 to 100,80 to 100
COCCC(=O)Oc1c(OC)ccnc1C(=O)N[C@H]1CCC[C@H](Oc2ccccc2)[C@@H](OCCCC(F)(F)F)[C@H](C)OC1=O [F110],80 to 100,80 to 100,80 to 100,80 to 100
COc1ccnc(C(=O)N[C@H]2CCC[C@H](Oc3ccccc3)[C@@H](OCCCc3ccccc3)[C@H](C)OC2=O)c1O [F111],0 to 80,0 to 80,80 to 100,< 0
COc1ccnc(C(=O)N[C@H]2CCC[C@H](Oc3ccccc3)[C@@H](OCCCc3ccccc3)[C@H](C)OC2=O)c1OCOC(=O)C(C)C [F112],80 to 100,80 to 100,80 to 100,80 to 100
COc1ccnc(C(=O)N[C@H]2CCC[C@H](Oc3ccc(C)cc3)[C@@H](Oc3ccc(C)cc3)[C@H](C)OC2=O)c1O [F113],< 0,0 to 80,0 to 80,0 to 80
CCCO[C@H]1[C@H](C)OC(=O)[C@@H](NC(=O)c2nccc(OC)c2O)CCC[C@@H]1OCCC [F114],80 to 100,80 to 100,80 to 100,80 to 100
COc1ccnc(C(=O)N[C@H]2CCC[C@H](Oc3ccc(C)cc3)[C@@H](Oc3ccc(C)cc3)[C@H](C)OC2=O)c1OCOC(C)=O [F115],80 to 100,0 to 80,80 to 100,0 to 80
CCCO[C@H]1[C@H](C)OC(=O)[C@@H](NC(=O)c2nccc(OC)c2OCOC(C)=O)CCC[C@@H]1OCCC [F116],80 to 100,80 to 100,80 to 100,80 to 100
COc1ccnc(C(=O)N[C@H]2CCC[C@H](OCC3CC3)[C@@H](OCC3CC3)[C@H](C)OC2=O)c1O [F117],< 0,80 to 100,80 to 100,80 to 100
CCCO[C@H]1[C@H](C)OC(=O)[C@@H](NC(=O)c2nccc(OC)c2O)CCC[C@@H]1OC1CCCC1 [F118],80 to 100,0 to 80,80 to 100,80 to 100
CCCO[C@H]1[C@H](C)OC(=O)[C@@H](NC(=O)c2nccc(OC)c2OCOC(C)=O)CCC[C@@H]1OC1CCCC1 [F121],80 to 100,80 to 100,80 to 100,80 to 100
COc1ccnc(C(=O)N[C@H]2CCC[C@H](OC3CCCC3)[C@@H](OCC(C)C)[C@H](C)OC2=O)c1OCOC(C)=O [F122],80 to 100,80 to 100,80 to 100,80 to 100
CCCO[C@H]1[C@H](C)OC(=O)[C@@H](NC(=O)c2nccc(OC)c2OCOC(=O)C(C)C)CCC[C@@H]1OC1CCCC1 [F123],80 to 100,80 to 100,80 to 100,80 to 100
COc1ccnc(C(=O)N[C@H]2CCC[C@H](OC3CCCC3)[C@@H](OCC(C)C)[C@H](C)OC2=O)c1OCOC(=O)C(C)C [F124],80 to 100,80 to 100,80 to 100,80 to 100
COc1ccnc(C(=O)N[C@H]2CCC[C@H](OC3CCCC3)[C@@H](OCCCC(F)(F)F)[C@H](C)OC2=O)c1OCOC(C)=O [F125],80 to 100,80 to 100,80 to 100,80 to 100
COc1ccnc(C(=O)N[C@H]2CCC[C@H](OC3CCCC3)[C@@H](OCCCC(F)(F)F)[C@H](C)OC2=O)c1OCOC(=O)C(C)C [F126],80 to 100,80 to 100,80 to 100,80 to 100
CCCO[C@H]1CCC[C@H](NC(=O)c2nccc(OC)c2O)C(=O)O[C@@H](C)[C@@H]1Oc1ccccc1 [F127],80 to 100,80 to 100,80 to 100,80 to 100
COc1ccnc(C(=O)N[C@H]2CCC[C@H](OCCCc3ccccc3)[C@@H](Oc3ccccc3)[C@H](C)OC2=O)c1O [F128],80 to 100,< 0,80 to 100,0 to 80
COc1ccnc(C(=O)N[C@H]2CCC[C@H](OCCCC(F)(F)F)[C@@H](Oc3ccccc3)[C@H](C)OC2=O)c1O [F129],80 to 100,< 0,80 to 100,80 to 100
COc1ccnc(C(=O)N[C@H]2CCC[C@H](Oc3ccccc3)[C@@H](OCCCc3ccccc3)[C@H](C)OC2=O)c1OC(C)=O [F131],80 to 100,80 to 100,80 to 100,80 to 100
COc1ccnc(C(=O)N[C@H]2CCC[C@H](OCCCC(F)(F)F)[C@@H](Oc3ccccc3)[C@H](C)OC2=O)c1OCOC(C)=O [F135],80 to 100,80 to 100,80 to 100,80 to 100
COc1ccnc(C(=O)N[C@H]2CCC[C@H](OCCCC(F)(F)F)[C@@H](Oc3ccccc3)[C@H](C)OC2=O)c1OCOC(=O)C(C)C [F136],80 to 100,80 to 100,80 to 100,80 to 100
COc1ccnc(C(=O)N[C@H]2CCC[C@H](OCCCC(F)(F)F)[C@@H](Oc3ccccc3)[C@H](C)OC2=O)c1OC(C)=O [F137],80 to 100,80 to 100,80 to 100,80 to 100
COc1ccnc(C(=O)N[C@H]2CCC[C@H](OC3CCCC3)[C@@H](OC(=O)C3CC3)[C@H](C)OC2=O)c1O [F142],0 to 80,80 to 100,80 to 100,80 to 100
